Experimental data from publication PMC9323955, “Synthesis and Evaluation of Small Molecule Drug Conjugates Harnessing Thioester-Linked Maytansinoids” (Pharmaceutics, 2022).
pIC50: −log10 of the molar value.

Assays:
[1] = tested on: HCC1806 triple-negative breast cancer cells; experiment: MTS cell viability assay (72 h); type: cell-based, human; settings: Homo sapiens, HCC1806; 72 h incubation, MTS; read-out: IC50, cytotoxicity against HCC1806 cells
Procedure: HCC1806 cells were grown in RPMI 1640 medium, and MTS assays were performed to check cell viability. Cells (2500–3000 cells/well) were grown in flat-bottomed 96-well plates for 24 h, and then serial dilutions of the compound were added, and cells were allowed to incubate for a further 72 h. At the end of the 72-h incubation period, the medium was removed, and 100 μL of a solution including a mixture of MTS and PMS was added. The cells were incubated for 1.5 h at 37 °C in a humidified incubator with 5% CO2 to allow viable cells to convert tetrazolium salts to formazan. Conversion to formazan was measured by absorbance (490 nm) using a BioTek PowerWave-X absorbance microplate meter. The data collected were normalized using a DMSO-treated control (100% viability) and a background control (0% viability) to verify growth inhibition.

[2] = PS SPR binding assay (Biacore T200, L1 chip); settings: DOPC/DOPS (3:1, v/v) liposomes on L1 chip, 25 °C
Procedure: Phospholipids, 1,2-dioleoyl-sn-glycero-3-phosphocholine (DOPC) and 1,2-dioleoyl-sn-glycero-3-[phosphate-L-serine] (DOPS) were obtained as chloroform solutions from Avanti Polar Lipids (Alabaster, AL, USA). These stock solutions were mixed in the specified proportions. A 0.4 mL aliquot of the lipid solution at a 10 mg/mL concentration was added to a round bottom flask and evaporated under a stream of N2 to provide a thin lipid film. The lipid films were rehydrated in PBS buffer for at least 1 h at room temperature. The resulting suspension was extruded through a 100 nm polycarbonate filter using an Avanti MiniExtruder according to the manufacturer’s instructions. Zeta potential (ZP) and liposome size distribution were recorded by dynamic light scattering (DLS) and microelectrophoresis using a Zetasizer Nano ZS instrument. The binding kinetics between conjugates and liposomes were recorded at 25 °C using a Biacore T200 biosensor equipped with an L1 sensor chip (GE Healthcare, Chicago, IL, USA). The new sensor chip was pretreated with running buffer (5% DMSO in phosphate buffered saline (PBS) at a pH of 7.4) and two consecutive 30 s pulses of 2:3 v/v 50 mM HCl/isopropanol at a flow rate of 30 μL/min. New liposome capture plates were prepared for each binding cycle. In PBS buffer, liposomes are diluted to 0.5–1 mM and captured to saturation in isolated flow cells at 2–5 μL/min (30–150 s). […]

[3] = tested on: HCC1806 human triple-negative breast cancer tumors; experiment: HCC1806 xenograft tumor efficacy; type: in vivo, female nude mice; settings: 0.3 mg/kg i.v. twice weekly for 2 weeks
Procedure: Cancer cells suspended in RPMI 1640 medium (11835-030, Thermo Fisher Scientific, Waltham, MA, USA) were mixed with Matrigel™ (356237, BD Biosciences, Franklin Lakes, NJ, USA) in a 1:1 ratio. Human triple-negative breast cancer HCC1806 (1 × 10^6 cells) cells were inoculated subcutaneously into the left flank of 6-week-old female nude mice (BioLASCO Taiwan, Taipei, Taiwan) using a 1 mL syringe with a 24G needle (AN-2425R, Terumo Medical Corp., Tokyo, Japan). Tumor dimensions were measured twice weekly using electronic calipers (FOW54-200-777, PRO-MAX), and the volume of tumor grown subcutaneously (mm^3) was calculated by the formula Volume = (length × width^2)/2. A combination of 10% DMA/20% Cremophor EL/70% 5% dextrose injection (D5W) was formulated to treat HCC1806 xenograft tumors. Mice with HCC1806 tumors were grouped and administered the indicated dosing regimen of 1 mg/kg for the conjugate and 0.3 mg/kg for the cytotoxic payloads DM1 and DM4 twice-weekly (day 1 and day 4) for 2 weeks when the mean tumor volume was approximately 200–250 mm^3 or 850–900 mm^3 (large tumors). The conjugate dose of 2 mg/kg was administered weekly for the large tumor study. The body weight and tumor volume of mice were measured twice weekly. In addition, a previously reported oncogene-induced, sorafenib-resistant HCC mouse model was used in the current study to examine the antitumor activities of synthesized compounds. Briefly, plasmids including transposase (pCMV(CAT)T7-SB100), human Akt1, and luciferase (pKT2/CLP-AKT-2A-OVA-HBc-HBs-LUC) and the N-Ras V12 mutant (pT/Caggs-NRASV12) were hydrodynamically injected (HDI) and the liver was monitored for the appearance of HCC. HCC mice with a total flux of more than 1 × 10^9 photons/s from IVIS imaging were used as treatment conjugates. The indicated conjugate was administered intravenously at 1 mg/kg 3 times per week over 2 weeks. IVIS imaging was repeatedly performed to follow tumor progression, and tumor tissue from treated HCC mice was collected for histological examination and RNA extraction after administration.

[4] = Plasma stability, 24 h incubation with plasma (HPLC); type: in vitro ADME
Procedure: Zn8_DM1: 0H VS. 24H in plasma.
Zn10_DM4: 0H VS. 24H in plasma.
Supporting Figure S1. Incubation of Linker-drug 3 and 4, conjugates Zn8_DM1 and
Zn10_DM4, DM1 and DM4 with plasma for 24 hrs. HPLC condition is listed below. […]

| Compound | pIC50 [1] | association with PS-coated liposomes (SPR) [2] | anti-HCC1806 tumor growth activity of free payload [3] | cleavage of the maytansinoid after incubation with plasma [4] |
| --- | --- | --- | --- | --- |
| COc1cc2cc(c1Cl)N(C)C(=O)C[C@H](OC(=O)[C@H](C)N(C)C(=O)CCS)[C@]1(C)O[C@H]1[C@H](C)[C@@H]1C[C@@](O)(NC(=O)O1)[C@H](OC)/C=C/C=C(\C)C2 [DM1, (14S,16S,32R,33S,2R,4S,10E,12E,14R)-86-chloro-14-hydroxy-85,14-dimethoxy-33,2,7,10-tetramethyl-12,6-dioxo-7-aza-1(6,4)-oxazinana-3(2,3)-oxirana-8(1,3)-benzenacyclotetradecaphane-10,12-dien-4-yl N-(3-mercaptopropanoyl)-N-methyl-D-alaninate, reference compound] | 7.68 | did not show association properties | – | – |
| COc1cc2cc(c1Cl)N(C)C(=O)CC(OC(=O)C(C)N(C)C(=O)CCC(C)(C)S)C1(C)OC1C(C)C1CC(O)(NC(=O)O1)C(OC)C=CC=C(C)C2 [DM4, (14R,16R,33R,2S,4S,10E,12Z,14S)-86-chloro-14-hydroxy-85,14-dimethoxy-33,2,7,10-tetramethyl-12,6-dioxo-7-aza-1(6,4)-oxazinana-3(2,3)-oxirana-8(1,3)-benzenacyclotetradecaphane-10,12-dien-4-yl N-(4-mercapto-4-methylpentanoyl)-N-methyl-D-alaninate, reference compound] | 8.15 | – | marginal improvement in its antitumor activity | – |
| COc1cc2cc(c1Cl)N(C)C(=O)C[C@H](OC(=O)[C@H](C)N(C)C(=O)CCSC(=O)c1ccc(CN(CCOCCOCCNC(=O)OC(C)(C)C)C(=O)C3(c4ccc(Cl)cc4)CCCCC3)cc1)[C@]1(C)O[C@H]1[C@H](C)[C@@H]1C[C@@](O)(NC(=O)O1)[C@H](OC)/C=C/C=C(\C)C2 [compound 3, (14R,16R,33R,2S,4S,10E,12Z,14S)-86-Chloro-14-hydroxy-85,14-dimethoxy-33,2,7,10-tetramethyl-12,6-dioxo-7-aza-1(6,4)-oxazinana-3(2,3)-oxirana-8(1,3)-benzenacyclotetradecaphane-10,12-dien-4-yl N-(3-((4-(2-(1-(4-chlorophenyl)cyclohexane-1-carbonyl)-14,14-dimethyl-12-oxo-5,8,13-trioxa-2,11-diazapentadecyl)benzoyl)thio)propanoyl)-N-methyl-L-alaninate] | – | – | – | No cleavage |
| COc1cc2cc(c1Cl)N(C)C(=O)CC(OC(=O)C(C)N(C)C(=O)CCC(C)(C)SC(=O)c1ccc(CN(CCOCCOCCNC(=O)OC(C)(C)C)C(=O)C3(c4ccc(Cl)cc4)CCCCC3)cc1)C1(C)OC1C(C)C1CC(O)(NC(=O)O1)C(OC)C=CC=C(C)C2 [compound 4, (14R,16R,33R,2S,4S,10E,12Z,14S)-86-Chloro-14-hydroxy-85,14-dimethoxy-33,2,7,10-tetramethyl-12,6-dioxo-7-aza-1(6,4)-oxazinana-3(2,3)-oxirana-8(1,3)-benzenacyclotetradecaphane-10,12-dien-4-yl N-(4-((4-(2-(1-(4-chlorophenyl)cyclohexane-1-carbonyl)-14,14-dimethyl-12-oxo-5,8,13-trioxa-2,11-diazapentadecyl)benzoyl)thio)-4-methylpentanoyl)-N-methyl-D-alaninate] | – | – | – | No cleavage |
